Measurements: ChEMBL document CHEMBL1201862, “PubChem BioAssay data set” (2004)
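Grown in 96-well plates, cells were treated for 48 hours with each compound at five concentrations. Insufficient inhibition: endpoint recorded as highest concentration tested. GI50 is the concentration that inhibits growth by half.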 The source made the active and inactive calls. Rule as the data show it: active = GI50 up to about 1.1 µM and inactive = higher.

Experiments:
Assay in all cases: NCI anticancer screen, dose series, 48 h
TK-10 = tested on: TK-10
NCI-H522 = tested on: NCI-H522
UO-31 = tested on: UO-31
COLO 205 = tested on: COLO 205
DMS-114 = tested on: DMS-114
SNB-75 = tested on: SNB-75
OVCAR-8 = tested on: OVCAR-8
SW-620 = tested on: SW-620
A498 = tested on: A498
NCI-H23 = tested on: NCI-H23
M14 = tested on: M14
HCT-15 = tested on: HCT-15
SK-OV-3 = tested on: SK-OV-3
KM12 = tested on: KM12
EKVX = tested on: EKVX
U-251 = tested on: U-251
XF498 = tested on: XF498
DLD-1 = tested on: DLD-1
SR = tested on: SR
HCT-116 = tested on: HCT-116
KM-20L2 = tested on: KM-20L2
CCRF-CEM = tested on: CCRF-CEM
SN12C = tested on: SN12C
OVCAR-4 = tested on: OVCAR-4
SK-MEL-28 = tested on: SK-MEL-28
UACC-257 = tested on: UACC-257
Malme-3M = tested on: Malme-3M
HOP-92 = tested on: HOP-92
A549 = tested on: A549
HL-60 = tested on: HL-60
SK-MEL-2 = tested on: SK-MEL-2
UACC-62 = tested on: UACC-62
SNB-78 = tested on: SNB-78
K562 = tested on: K562
OVCAR-3 = tested on: OVCAR-3
ACHN = tested on: ACHN
RXF 393 = tested on: RXF 393
SNB-19 = tested on: SNB-19
DMS-273 = tested on: DMS-273
CAKI-1 = tested on: CAKI-1
SF-295 = tested on: SF-295
SF-539 = tested on: SF-539
SK-MEL-5 = tested on: SK-MEL-5
MOLT-4 = tested on: MOLT-4
SF-268 = tested on: SF-268
IGROV-1 = tested on: IGROV-1
OVCAR-5 = tested on: OVCAR-5
M19-MEL = tested on: M19-MEL
HOP-62 = tested on: HOP-62
HCC 2998 = tested on: HCC 2998
RPMI-8226 = tested on: RPMI-8226
HT-29 = tested on: HT-29
LXFL 529 = tested on: LXFL 529

## CCCCCCCCC[C@@H]1C[C@H](O)[C@H](Cc2ccccc2)N1C(=O)OC(C)(C)C
TK-10
  GI50: 15.5 µM (inactive)
NCI-H522
  GI50: 16.4 µM (inactive)
UO-31
  GI50: 14.3 µM (inactive)
COLO 205
  GI50: 17 µM (inactive)
DMS-114
  GI50: 16.9 µM (inactive)
SNB-75
  GI50: 21.9 µM (inactive)
OVCAR-8
  GI50: 17.5 µM (inactive)
SW-620
  GI50: 20.1 µM (inactive)
A498
  GI50: 19.5 µM (inactive)
NCI-H23
  GI50: 15.6 µM (inactive)
M14
  GI50: 22.6 µM (inactive)
HCT-15
  GI50: 18.6 µM
SK-OV-3
  GI50: 19.6 µM (inactive)
KM12
  GI50: 18.7 µM (inactive)
EKVX
  GI50: 14.4 µM (inactive)
U-251
  GI50: 16.1 µM (inactive)
XF498
  GI50: 22.2 µM (inactive)
DLD-1
  GI50: 18.3 µM (inactive)
SR
  GI50: 18.2 µM (inactive)
HCT-116
  GI50: 17.9 µM (inactive)
KM-20L2
  GI50: 17.1 µM (inactive)
CCRF-CEM
  GI50: 20.2 µM (inactive)
SN12C
  GI50: 16.7 µM (inactive)
OVCAR-4
  GI50: 17.7 µM (inactive)
SK-MEL-28
  GI50: 19.7 µM (inactive)
UACC-257
  GI50: 15.8 µM (inactive)
Malme-3M
  GI50: 20.1 µM (inactive)
HOP-92
  GI50: 15 µM (inactive)
A549
  GI50: 18 µM (inactive)
HL-60
  GI50: 22.9 µM (inactive)
SK-MEL-2
  GI50: 15.3 µM (inactive)
UACC-62
  GI50: 17 µM (inactive)
SNB-78
  GI50: 22.8 µM (inactive)
K562
  GI50: 37.4 µM (inactive)
OVCAR-3
  GI50: 20.3 µM (inactive)
ACHN
  GI50: 17.1 µM (inactive)
RXF 393
  GI50: 17.7 µM (inactive)
SNB-19
  GI50: 18.6 µM (inactive)
DMS-273
  GI50: 18.1 µM (inactive)
CAKI-1
  GI50: 21.9 µM (inactive)
SF-295
  GI50: 15.8 µM (inactive)
SF-539
  GI50: 20.9 µM (inactive)
SK-MEL-5
  GI50: 19.1 µM (inactive)
MOLT-4
  GI50: 36.5 µM (inactive)
SF-268
  GI50: 18.7 µM (inactive)
IGROV-1
  GI50: 18.6 µM (inactive)
OVCAR-5
  GI50: 15.1 µM (inactive)
M19-MEL
  GI50: 16.8 µM (inactive)
HOP-62
  GI50: 19.9 µM (inactive)
HCC 2998
  GI50: 14.4 µM (inactive)
RPMI-8226
  GI50: 24.1 µM (inactive)
HT-29
  GI50: 16.7 µM (inactive)
LXFL 529
  GI50: 17.2 µM (inactive)
